This passage reports TGI results from PubChem BioAssay (NCI).

Assay in all cases: NCI anticancer screen, dose series, 48 h
Assay [1] relates to OVCAR-8 ovarian.
The test system of assay [2] is HOP-62 NSCLC.
The test system of assay [3] is LOX IMVI melanoma.
The subject of assay [4] is RPMI-8226 leukemia.
The test system of assay [5] is OVCAR-4 ovarian.
Assay [6] relates to NCI-H522 lung.
Assay [7] has as its system HCT-15 colon.
For assay [8], the system named is UACC-257 melanoma.
Assay [9] relates to MALME-3M melanoma.
Assay [10] relates to IGROV1 ovarian.
Assay [11] deals with SK-MEL-28 melanoma.
The subject of assay [12] is MOLT-4 leukemia.
Assay [13] concerns SK-OV-3 ovarian.
Assay [14] deals with HL-60(TB) leukemia.
In assay [15] the test system is RXF 393 renal.
Assay [16] deals with CCRF-CEM leukemia.
For assay [17], the system named is NCI-H460 lung.
The subject of assay [18] is K-562 leukemia.
The test system of assay [19] is EKVX NSCLC.
Assay [20] concerns NCI-H23 lung.

Structures are written as SMILES.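 In this assay, cells in 96-well plates receive the compound at five concentrations for 48 hours. Endpoints are linearly interpolated between the surrounding concentrations. TGI is the concentration that stops growth completely.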 Bounds are passed on as bounds.

With `CN(C)C(=O)OCOC(=O)N(C)C`, the TGI in [1], in assay [2], in [3], in assay [4], in assay [5] and in [6] was more than 100 µM each time. Moreover, the TGI in assay [7], in [8], in [9], in assay [10], in assay [11] and in assay [12] was more than 100 µM throughout. Also, the TGI in assay [13] is more than 100 µM; in assay [14] it was more than 31.6 µM; in assay [15] it was more than 100 µM; in assay [16] it was more than 100 µM; in assay [17], more than 100 µM; in [18], more than 100 µM. The TGI in [19] and in [20] was more than 100 µM in each case.
As for `COc1ccnc2c1C(=O)c1nc3ccccc3c3ccnc-2c13`, the TGI came to 0.224 µM in assay [1]; 5.34 µM in assay [2]; 5.47 µM in assay [3]; 0.526 µM in assay [4]; 2.65 µM in [5]; 0.262 µM in assay [6]. Also, the TGI in assay [7] turned out to be 0.145 µM; in assay [8], 0.536 µM; in assay [9], 1.3 µM; in assay [10] it was 0.704 µM; in assay [11], 7.37 µM; in assay [12] it was 7.32 µM. Also, the TGI in [13] is 0.645 µM; in assay [14], 0.29 µM; in assay [15] it was 0.86 µM; in assay [16] it was 1.35 µM; in [17], 0.139 µM; in assay [18] it was 0.653 µM. The TGI in assay [19] worked out at 2.62 µM; in [20], 1.37 µM.
Turning to `CCOC(=O)CC1CCN(C(=O)c2ccccc2)C2Cc3c([nH]c4ccccc34)C12C[N+](=O)[O-]` (stereo not drawn), the TGI in assay [1], in assay [2], in [3], in assay [5], in assay [6] and in assay [7] was more than 100 µM in each case. Further, the TGI in [8], in [9], in assay [10], in assay [11], in [12] and in [13] was more than 100 µM throughout. Further, the TGI in assay [14] is more than 100 µM; in assay [15], more than 100 µM; in assay [16], 51.3 µM; in [17], more than 100 µM; in assay [18] it was more than 100 µM; in [19], more than 100 µM. Further, the TGI in assay [20] is more than 100 µM.
Regarding `CCOC(=O)c1csc(NC(=O)C(C)N2CCCCC2)n1` (stereo not drawn), the TGI in [1], in assay [2], in [3], in assay [4], in assay [5] and in assay [7] was more than 100 µM throughout. The TGI in assay [8], in assay [9], in [10], in assay [11], in assay [12] and in assay [13] was more than 100 µM throughout. The TGI in [14], in assay [15], in assay [16], in [17], in assay [18] and in [19] was more than 100 µM in each case. In assay [20], this molecule showed a TGI of more than 100 µM.
Regarding `OCC1OC(n2cnc3c2NC=NC[C@H]3O)C(O)C1O` (stereo partly drawn), the TGI in assay [1] was more than 450 µM; in assay [2], more than 419 µM; in assay [3], more than 450 µM; in [4], more than 450 µM; in [5], more than 450 µM; in assay [6], more than 450 µM. Moreover, the TGI in [7], in assay [8], in assay [9], in [10], in assay [11] and in assay [12] was more than 450 µM throughout. In addition, the TGI was more than 450 µM in assay [13]; 284 µM in assay [14]; more than 450 µM in [15]; more than 284 µM in [16]; more than 450 µM in assay [17]; more than 284 µM in assay [18]. In addition, the TGI in [19] and in assay [20] was more than 450 µM throughout.
For the molecule `O=c1c(-c2ccccc2)c(SCCCN2CCN(c3cccc(Cl)c3)CC2)n(-c2ccccc2)c(=S)n1-c1ccccc1`, the TGI in [1], in assay [2], in [3], in assay [4], in assay [5] and in assay [6] was more than 100 µM in each case. The TGI in assay [7], in assay [8], in assay [9], in [10], in [11] and in assay [12] was more than 100 µM in each case. For the same molecule, the TGI in assay [13], in assay [14], in assay [15], in assay [16], in [17] and in assay [18] was more than 100 µM throughout. The TGI in assay [19] and in [20] was more than 100 µM each time.
`CC(=O)OCC1OC(Nc2ncc(-c3ccc(C)cc3)s2)C(OC(C)=O)C(OC(C)=O)C1OC(C)=O` (stereo not drawn): the TGI in assay [1] was more than 100 µM; in assay [2], more than 100 µM; in assay [3] it was more than 68.3 µM; in assay [4], 65.4 µM; in [5] it was 60.6 µM; in assay [6] it was more than 100 µM. The TGI in [7] is more than 100 µM; in assay [8] it was 58.3 µM; in assay [9] it was more than 100 µM; in [10], more than 100 µM; in [11], more than 100 µM; in assay [12], 65.3 µM. Besides, the TGI was more than 100 µM in [13]; 43.7 µM in [14]; more than 100 µM in [15]; more than 100 µM in [16]; more than 80.9 µM in assay [17]; more than 100 µM in [18]. The TGI in assay [19] and in assay [20] was more than 100 µM in each case.
